From patent US20240002391A1, “4-ALKOXYPYRROLO[2,1-F][1,2,4]TRIAZINES AND PREPARATION AND USES THEREOF” (BioSplice Therapeutics, Inc., priority 2022, published 2024)

target: recombinant DYRK1A kinase (Homo sapiens (Human), UniProt Q13627); test: DYRK1A kinase assay (Ser/Thr 18 peptide Z-lyte FRET); assay type: biochemical; details: DYRK1A kinase activity, Z-lyte Ser/Thr 18 peptide, 15 μM ATP; method text calls the value IC50; read-out: EC50 (the source's name)
How it was run: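 Compounds were tested as 11-point, threefold dilution series starting at 10 μM against recombinant enzyme in a 1 h room-temperature reaction with 15 μM ATP and 4 μM peptide substrate. Phosphorylation is read by protease-coupled FRET, and IC50 values come from curve fitting.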

Row | IC50 [nM] | SMILES
1 | 1.5 | COc1nc(N[C@@H]2CCN(C(C)=O)C[C@@H]2F)nn2ccc(-c3ccc4nnn(CC(F)F)c4c3)c12 [Compound 770, 1-((3S,4R)-4-((5-(1-(2,2-Difluoroethyl)-1H-benzo[d][1,2,3]triazol-6-yl)-4-methoxypyrrolo[2,1-f][1,2,4]triazin-2-yl)amino)-3-fluoropiperidin-1-yl)ethan-1-one]
2 | 0.1 | COc1nc(N[C@H]2CCN(C(C)=O)C[C@H]2F)nn2ccc(-c3ccc4nnn(CC(F)F)c4c3)c12 [Compound 771, 1-((3R,4S)-4-((5-(1-(2,2-Difluoroethyl)-1H-benzo[d][1,2,3]triazol-6-yl)-4-methoxypyrrolo[2,1-f][1,2,4]triazin-2-yl)amino)-3-fluoropiperidin-1-yl)ethan-1-one]
3 | 2 | CCC(=O)N1CC[C@@H](Nc2nc(OC)c3c(-c4ccc5nnn(CC(F)F)c5c4)ccn3n2)[C@@H](F)C1 [Compound 772, 1-((3S,4R)-4-((5-(1-(2,2-Difluoroethyl)-1H-benzo[d][1,2,3]triazol-6-yl)-4-methoxypyrrolo[2,14][1,2,4]triazin-2-yl)amino)-3-fluoropiperidin-1-yl)propan-1-one]
4 | 0.7 | CCC(=O)N1CC[C@H](Nc2nc(OC)c3c(-c4ccc5nnn(CC(F)F)c5c4)ccn3n2)[C@H](F)C1 [Compound 773, 1-((3R,4S)-4-((5-(1-(2,2-Difluoroethyl)-1H-benzo[d][1,2,3]triazol-6-yl)-4-methoxypyrrolo[2,1-f][1,2,4]triazin-2-yl)amino)-3-fluoropiperidin-1-yl)propan-1-one]
5 | 0.5 | COc1nc(N[C@H]2CCN(C(=O)C3(C#N)CC3)C[C@H]2F)nn2ccc(-c3ccc4nnn(CC(F)F)c4c3)c12 [Compound 776, 1-((3R,4S)-4-((5-(1-(2,2-Difluoroethyl)-1H-benzo[d][1,2,3]triazol-6-yl)-4-methoxypyrrolo[2,1-f][1,2,4]triazin-2-yl)amino)-3-fluoropiperidine-1-carbonyl)cyclopropane-1-carbonitrile]
6 | 1.6 | COc1nc(N[C@@H]2CCN(C)CC2(F)F)nn2ccc(-c3ccc4nnn(CC(F)F)c4c3)c12 [Compound 777, (R)—N-(3,3-Difluoro-1-methylpiperidin-4-yl)-5-(1-(2,2-difluoroethyl)-1H-benzo[d][1,2,3]triazol-6-yl)-4-methoxypyrrolo[2,1-f][1,2,4]triazin-2-amine]
7 | 1.9 | CCN1CC[C@@H](Nc2nc(OC)c3c(-c4ccc5nnn(CC(F)F)c5c4)ccn3n2)C(F)(F)C1 [Compound 780, (R)-5-(1-(2,2-Difluoroethyl)-1H-benzo[d][1,2,3]triazol-6-yl)-N-(1-ethyl-3,3-difluoropiperidin-4-yl)-4-methoxypyrrolo[2,1-f][1,2,4]triazin-2-amine]
8 | 0.5 | COc1nc(N[C@@H]2CCN(C3COC3)CC2(F)F)nn2ccc(-c3ccc4nnn(CC(F)F)c4c3)c12 [Compound 785, (R)—N-(3,3-Difluoro-1-(oxetan-3-yl)piperidin-4-yl)-5-(1-(2,2-difluoroethyl)-1H-benzo[d][1,2,3]triazol-6-yl)-4-methoxypyrrolo[2,1-f][1,2,4]triazin-2-amine]
9 | 0.7 | COc1nc(N[C@@H]2CCN(C(C)=O)CC2(F)F)nn2ccc(-c3ccc4nnn(CC(F)F)c4c3)c12 [Compound 788, (R)-1-(4-((5-(1-(2,2-Difluoroethyl)-1H-benzo[d][1,2,3]triazol-6-yl)-4-methoxypyrrolo[2,1-f][1,2,4]triazin-2-yl)amino)-3,3-difluoropiperidin-1-yl)ethan-1-one]
10 | 2.2 | COc1nc(N[C@@H]2CCN(C(=O)C3(C#N)CC3)CC2(F)F)nn2ccc(-c3ccc4nnn(CC(F)F)c4c3)c12 [Compound 791, (R)-1-(4-((5-(1-(2,2-Difluoroethyl)-1H-benzo[d][1,2,3]triazol-6-yl)-4-methoxypyrrolo[2,1-f][1,2,4]triazin-2-yl)amino)-3,3-difluoropiperidine-1-carbonyl)cyclopropane-1-carbonitrile]
11 | 1.3 | COc1nc(NC2CCC(=O)N(C)C2)nn2ccc(-c3ccc4nnn(CC(F)F)c4c3)c12 (stereo not shown) [Compound 793, 5-((5-(1-(2,2-Difluoroethyl)-1H-benzo[d][1,2,3]triazol-6-yl)-4-methoxypyrrolo[2,1-f][1,2,4]triazin-2-yl)amino)-1-methylpiperidin-2-one]
12 | 0.3 | COc1nc(NC23CCC(O)(CC2)C3)nn2ccc(-c3ccc4nnn(CC(F)F)c4c3)c12 [Compound 798, 4-((5-(1-(2,2-Difluoroethyl)-1H-benzo[d][1,2,3]triazol-6-yl)-4-methoxypyrrolo[2,1-f][1,2,4]triazin-2-yl)amino)bicyclo[2.2.1]heptan-1-ol]
13 | 1.7 | COc1nc(NC2CCC3(CC2)CN(C(C)=O)C3)nn2ccc(-c3ccc4nnn(CC(F)F)c4c3)c12 [Compound 799, 1-(7-((5-(1-(2,2-Difluoroethyl)-1H-benzo[d][1,2,3]triazol-6-yl)-4-methoxypyrrolo[2,1-f][1,2,4]triazin-2-yl)amino)-2-azaspiro[3.5]nonan-2-yl)ethan-1-one]
14 | 3.2 | COc1nc(NC2CCC3(CC2)COC3)nn2ccc(-c3ccc4nnn(CC(F)F)c4c3)c12 [Compound 801, 5-(1-(2,2-Difluoroethyl)-1H-benzo[d][1,2,3]triazol-6-yl)-4-methoxy-N-(2-oxaspiro[3.5]nonan-7-yl)pyrrolo[2,1-f][1,2,4]triazin-2-amine]
15 | 1.6 | COc1nc(N[C@H]2C[C@@](C)(NC(C)=O)C2)nn2ccc(-c3cc(F)c4nnn(CC(F)F)c4c3)c12 [Compound 805, N-((1s,3s)-3-((5-(1-(2,2-Difluoroethyl)-4-fluoro-1H-benzo[d][1,2,3]triazol-6-yl)-4-methoxypyrrolo[2,1-f][1,2,4]triazin-2-yl)amino)-1-methylcyclobutyl)acetamide]
16 | 1.4 | COc1nc(N[C@H]2C[C@](C)(NC(C)=O)C2)nn2ccc(-c3cc(F)c4nnn(CC(F)F)c4c3)c12 [Compound 806, N-((1r,3r)-3-((5-(1-(2,2-Difluoroethyl)-4-fluoro-1H-benzo[d][1,2,3]triazol-6-yl)-4-methoxypyrrolo[2,1-f][1,2,4]triazin-2-yl)amino)-1-methylcyclobutyl)acetamide]
17 | 10.9 | COc1nc(N[C@H]2CC[C@@](C)(O)CC2)nn2ccc(-c3cc(F)c4nnn(CC(F)F)c4c3)c12 [Compound 810, (1s,4s)-4-((5-(1-(2,2-Difluoroethyl)-4-fluoro-1H-benzo[d][1,2,3]triazol-6-yl)-4-methoxypyrrolo[2,1-f][1,2,4]triazin-2-yl)amino)-1-methylcyclohexan-1-ol]
18 | 1.7 | COc1nc(N[C@H]2CC[C@](C)(O)CC2)nn2ccc(-c3cc(F)c4nnn(CC(F)F)c4c3)c12 [Compound 811, (1r,4r)-4-((5-(1-(2,2-Difluoroethyl)-4-fluoro-1H-benzo[d][1,2,3]triazol-6-yl)-4-methoxypyrrolo[2,1-f][1,2,4]triazin-2-yl)amino)-1-methylcyclohexan-1-ol]
19 | 2.8 | COc1nc(N[C@@H]2CN(C(C)=O)C[C@@H]2F)nn2ccc(-c3cc(F)c4nnn(CC(F)F)c4c3)c12 [Compound 812, 1-((3R,4S)-3-((5-(1-(2,2-Difluoroethyl)-4-fluoro-1H-benzo[d][1,2,3]triazol-6-yl)-4-methoxypyrrolo[2,1-f][1,2,4]triazin-2-yl)amino)-4-fluoropyrrolidin-1-yl)ethan-1-one]
20 | 2.8 | COc1nc(N[C@H]2CCN(C(C)=O)C[C@H]2F)nn2ccc(-c3cc(F)c4nnn(CC(F)F)c4c3)c12 [Compound 816, 1-((3R,4S)-4-((5-(1-(2,2-Difluoroethyl)-4-fluoro-1H-benzo[d][1,2,3]triazol-6-yl)-4-methoxypyrrolo[2,1-f][1,2,4]triazin-2-yl)amino)-3-fluoropiperidin-1-yl)ethan-1-one]
21 | 0.8 | COc1nc(N[C@H]2CCN(C3COC3)C[C@H]2F)nn2ccc(-c3cc(F)c4nnn(CC(F)F)c4c3)c12 [Compound 818, 5-(1-(2,2-Difluoroethyl)-4-fluoro-1H-benzo[d][1,2,3]triazol-6-yl)-N-((3R,4S)-3-fluoro-1-(oxetan-3-yl)piperidin-4-yl)-4-methoxypyrrolo[2,1-f][1,2,4]triazin-2-amine]
22 | 1.9 | COc1nc(N[C@@H]2CCN(C(C)=O)CC2(F)F)nn2ccc(-c3cc(F)c4nnn(CC(F)F)c4c3)c12 [Compound 821, (R)-1-(4-((5-(1-(2,2-Difluoroethyl)-4-fluoro-1H-benzo[d][1,2,3]triazol-6-yl)-4-methoxypyrrolo[2,1-f][1,2,4]triazin-2-yl)amino)-3,3-difluoropiperidin-1-yl)ethan-1-one]
23 | 1.8 | COc1nc(N[C@@H]2CCN(C3COC3)CC2(F)F)nn2ccc(-c3cc(F)c4nnn(CC(F)F)c4c3)c12 [Compound 822, (R)—N-(3,3-Difluoro-1-(oxetan-3-yl)piperidin-4-yl)-5-(1-(2,2-difluoroethyl)-4-fluoro-1H-benzo[d][1,2,3]triazol-6-yl)-4-methoxypyrrolo[2,1-f][1,2,4]triazin-2-amine]
24 | 1.9 | COc1nc(N[C@H]2CCN(C(C)=O)C[C@H]2F)nn2cc(F)c(-c3ccc4nnn(CC(F)F)c4c3)c12 [Compound 856, 1-((3R,4S)-4-((5-(1-(2,2-Difluoroethyl)-1H-benzo[d][1,2,3]triazol-6-yl)-6-fluoro-4-methoxypyrrolo[2,1-f][1,2,4]triazin-2-yl)amino)-3-fluoropiperidin-1-yl)ethan-1-one]

Row | SMILES | IC50 [nM]
25 | COc1nc(N[C@H]2C[C@@H](OCCO)C2)nn2ccc(-c3ccc4nnn(CC(F)(F)F)c4c3)c12 [Compound 904, 2-(cis-3-((4-Methoxy-5-(1-(2,2,2-trifluoroethyl)-1H-benzo[d][1,2,3]triazol-6-yl)pyrrolo[2,1-f][1,2,4]triazin-2-yl)amino)cyclobutoxy)ethan-1-ol] | 1.8
